Tests used:
[1] = system: Bacillus amyloliquefaciens; assay: Effect of ATP and ATPase on growth (OD600), Table 1; assay type: cell-based; settings: TSA media; 5 mM ATP; 37° C. anaerobically, 48 hours
Procedure: (§1) Different growth media were inoculated with 1% over night grown culture of various bacterial and yeast species (as detailed in Table 1). Cells were grown in the presence of 5 mM exogenously-added ATP or 100 nM potato apyrase or bovine alkaline phosphatase (ATPase). Experiments were done in volumes of 200 μl per well in standard microtiter plates. Growth was assessed via plate reader at OD600 every 30 minutes for 48 hours. All the experiments were done at 37° C. anaerobically except for yeast strain Kazachstania unispora where cells were grown aerobically at 28° C.

[2] = system: Bifidobacterium longum; assay: as above; assay type: cell-based; settings: BHI media; 5 mM ATP; 37° C. anaerobically, 48 hours
Procedure: as §1

[3] = system: Kazachstania unispora; assay: as above; assay type: cell-based; settings: YM media; 5 mM ATP; aerobically at 28° C., 48 hours
Procedure: as §1

[4] = system: Bifidobacterium lactis; assay: as above; assay type: cell-based; settings: MRS media; 5 mM ATP; 37° C. anaerobically, 48 hours
Procedure: as §1

[5] = system: Lactobacillus rhamnosus; assay: as above; assay type: cell-based; settings: 5 mM ATP, 37° C. anaerobically, 48 hours
Procedure: as §1

[6] = system: Prevotella copri; assay: as above; assay type: cell-based; settings: TSA media; 5 mM ATP; 37° C. anaerobically, 48 hours
Procedure: as §1

[7] = system: Oscillibacter sp; assay: as above; assay type: cell-based; settings: YCFAC media; 5 mM ATP; 37° C. anaerobically, 48 hours
Procedure: as §1

[8] = system: Bifidobacterium animalis; assay: as above; assay type: cell-based; settings: MRS media; 5 mM ATP; 37° C. anaerobically, 48 hours
Procedure: as §1

[9] = system: Akkermansia sp; assay: as above; assay type: cell-based; settings: YCFAC + Mucin media; 5 mM ATP; 37° C. anaerobically, 48 hours
Procedure: as §1

[10] = system: Bifidobacterium Infantis; assay: as above; assay type: cell-based; settings: MRS media; 5 mM ATP; 37° C. anaerobically, 48 hours
Procedure: as §1

[11] = system: Lactobacillus crispatus; assay: as above; assay type: cell-based; settings: MRS media; 5 mM ATP; 37° C. anaerobically, 48 hours
Procedure: as §1

[12] = system: Bifidobacterium animalis; assay: Growth of B. animalis in MRS media, OD600 plate reader; assay type: cell-based; settings: 24 hrs
Procedure: MRS media was inoculated with 1% overnight grown culture of Bifidobacterium animalis. Cells were grown with the addition of 5 mM ATP (Sigma) or 100 nM potato apyrase (ATPase; Sigma catalog #A6535). Experiments were performed in volumes of 200 μl per well in standard microtiter plates. Growth was assessed via Synergy HTX multi-mode plate reader (Bio Tek Instruments) at OD600 every 30 minutes for 24 hrs. Each plate was incubated at 37° C. and shaken once every 30 mins just before the reading.
MRS media was inoculated with 1% over night grown culture of B. animalis. Cells were grown with 100 nM potato apyrase (ATPase) or heat-treated (95° C. for 10 mins) 100 nM potato apyrase. Experiments were performed in volumes of 200 μl per well in standard microtiter plates. Growth was assessed via plate reader at OD600 every 30 minutes.

[13] = system: CHO-GFP cell line; assay: GFP expression of CHO-GFP cell line in adherent culture, fluorescence imaging; assay type: cell-based, Chinese hamster; settings: 10 nM ATPase; imaged after 60 hrs
Source text: (§2) The growth effect of exogenously added ATPase enzymes was examined on established mammalian (Chinese hamster ovary (CHO)) cell lines. CHO wild-type cell line was purchased from Creative Biogene (NY, USA) Cat No. CSC-C3064, and CHO cell line constitutively expressing Green Fluorescent Protein (CHO-GFP) was purchased from GenTarget, Inc (San Diego, CA, USA) Cat No. SC039-Puro. Wild type CHO cell line was maintained in CD OptiCHO™ (ThermoFisher) medium for growth in suspension. GFP expressing CHO cell line was maintained in RPMI 1640 media (ThermoFisher) for adherent growth. Cell lines were cultured in a humidified incubation chamber at 37° C. with 5% CO2.
To study the effect of exogenous ATPase on recombinant protein expression by mammalian cells, the CHO-GFP cell line was used. CHO-GFP cells were seeded onto the wells of 6-well plates at 1×10^4 cells per well and incubated for 12 hours. Subsequently, ATPase (potato Apyrase or bacterial enzyme CRC22110) were added to the wells at 10 nM final concentration and cells were incubated for an additional 48 hours For GFP expression visualization, cells were imaged after 60 hrs of incubation with ATPase by using Invitrogen™ EVOS™ FL Imaging System. […] The number of cells displaying fluorescence signal and the amount of fluorescence are both increased in the cultures grown with exogenous ATPases, potato apyrase or CRC22110.

[14] = system: B. animalis subsp. lactis 420; assay: eATP in culture supernatants, Luciferase Reporter Assay; assay type: cell-based; settings: 100 nM potato apyrase; MRS, 37° C. anaerobic; 0, 7 and 13 hr
Procedure: MRS media was inoculated with 1% overnight grown culture of B. animalis subsp. lactis 420. Cells were grown at 37° C. under anaerobic conditions with and without potato apyrase. Potato apyrase was used at 100 nM. 200 μl of the sample was collected at different time points. Cells were harvested by centrifugation at 5000 rpm for 5 mins. Supernatants were used to estimate nanomolar ATP using a Luciferase® Reporter Assay System (Promega).
ATP measurements were performed on supernatants collected at 0, 7 and 13 hr time points.

[15] = system: CHO wild-type cell line; assay: CHO cell growth in suspension, trypan blue cell count; assay type: cell-based, Chinese hamster; settings: for increase in CHO cell numbers: 10 nM ATPase, after 60 hrs of growth in suspension
Source text: as §2
To measure the effect on CHO cells in suspension, cultures were seeded onto the wells of 6-well plates at 1×10^4 cells per well and incubated for 12 hours. Subsequently, ATPase (potato apyrase or bacterial enzyme CRC22110 (SEQ ID NO:1)) were added to the wells at 10 nM final concentration and incubated for an additional 48 hours. The potato apyrase (Cat No. A6410) and, was sourced from Sigma. The recombinant CRC22110 (SEQ ID NO: 1) enzyme was purified from Bacillus cultures using chromatography methods known in the art. After a total of 60 hours in culture, cells were detached by trypsin treatment, stained with trypan blue and counted in a Countess 3 FL system (Invitrogen). Data on FIG. 4 show the effect of ATPase on CHO cell growth.

Nc1ncnc2c1ncn2[C@@H]1O[C@H](COP(=O)(O)OP(=O)(O)OP(=O)(O)O)[C@@H](O)[C@H]1O [ATP, Adenosine triphosphate]
Sensitivity to ATP [1]: YES
Sensitivity to ATP [2]: YES
Sensitivity to ATP [3]: YES
Sensitivity to ATP [4]: YES
Sensitivity to ATP ([5]; BHI media): YES
Sensitivity to ATP ([5]; MRS media): YES
Sensitivity to ATP [6]: YES
Sensitivity to ATP [7]: YES
Sensitivity to ATP [8]: YES
Sensitivity to ATP [9]: YES
Sensitivity to ATP [10]: YES
Sensitivity to ATP [11]: YES
cellular growth (OD600) ([12]; 5 mM exogenously added ATP, 37° C.): supressed

B1: potato apyrase: potato apyrase (ATPase; Sigma), EC 3.6.1.5; SEQ ID NO: 3, predicted mature SEQ ID NO: 4 (protein, listed as Solanum tuberosum)
chain: KNVNAQIPLRRHLLSHESEHYAVIFDAGSTGSRVHVFRFDEKLGLLPIGNNIEYFMATEPGLSSYAEDPKAAANSLEPLLDGAEGVVPQELQSETPLELGATAGLRMLKGDAAEKILQAVRNLVKNQSTFHSKDQWVTILDGTQEGSYMWAAINYLLGNLGKDYKSTTATIDLGGGSVQMAYAISNEQFAKAPQNEDGEPYVQQKHLMSKDYNLYVHSYLNYGQLAGRAEIFKASRNESNPCALEGCDGYYSYGGVDYKVKAPKKGSSWKRCRRLTRHALKINAKCNIEECTFNGVWNGGGGDGQKNIHASSFFYDIGAQVGIVDTKFPSALAKPIQYLNAAKVACQTNVADIKSIFPKTQDRNIPYLCMDLIYEYTLLVDGFGLNPHKEITVIHDVQYKNYLVGAAWPLGCAIDLVSSTTNKIRVASS
growth (OD600) versus cells-only control ([12]; 100 nM potato apyrase alone): grew better than the cells-only control
growth (OD600) in the presence of exogenously-added ATP ([12]; 100 nM potato apyrase plus 5 mM ATP): negated the growth inhibitory effect of exogenously-added ATP
amount of fluorescence (GFP) [13]: increased
number of cells displaying fluorescence signal (GFP) [13]: increased
ATP accumulation in culture supernatant [14]: did not exhibit ATP accumulation
nanomolar ATP over time in culture supernatant [14]: decrease
increase in CHO cell numbers [15]: 3 fold
number of viable cells in culture (trypan blue exclusion) ([15]; 10 nM potato apyrase, 60 hours in culture): improves the number of viable cells in culture

B2: CRC22110: recombinant bacterial enzyme CRC22110 (SEQ ID NO:1), Gallaecimonas xiamenensis 3-C-1, purified from Bacillus cultures (protein, listed as Gallaecimonas xiamenensis)
chain: ADKPACRAVFDAGSSGTRLFLYVQQEGGWQPWPGAKLGALADPVRQHQGPKAMAALAADLANSLEALRQDGPTNSEGQPRWQGFDWQQACRLQSVSVLATAGMRLAEQQDPVASVALWQEVQQALAGLLGPAVAIDARTLTGFEEGFYAWLAARARLGRSDMGIVEMGGASSQVAFPCPACDRADDAVQQVRLEGQTLDFYSYSFLGLGQDEAPKVLGVPHACRYGAGVKDPNWQLGQCQAQLPLTLGRALKDPYNFQGQGQGGYRQVPTEKAGVKDWLLTGAFQYNTPDQLDSCCLNQGQCYQPSTACFRVAYLPLYLDSLGVDPHSPDLDVSWTLGAVLCRNEQCLAPSKPPCRWRKAGCLAPSVGDGRPEGRPGQQPGGVQHRQH
amount of fluorescence (GFP) [13]: increased
number of cells displaying fluorescence signal (GFP) [13]: increased
increase in CHO cell numbers [15]: 3 fold

Reference: patent US20240425805A1, “CELL CULTURE METHODS” (INTERNATIONAL N&H DENMARK APS, priority 2021, published 2024)
